Laboratory results: ChEMBL document CHEMBL5042543, “Bridged Piperidine Analogues of a High Affinity Naphthalene-Based P2Y14R Antagonist” (J Med Chem, 2022)
In brackets after ≈: the same amount, converted by molar mass. Activity calls are given as the source filed them. The calls are words filed in the database; no cut-off is given here.

Key:
[1] = molecular target: Sigma intracellular receptor 2 (Homo sapiens, UniProt Q5BJF2); assay: Inhibition of sigma 2 receptor (unknown origin) assessed as binding constant
Sequence of Sigma intracellular receptor 2 (Q5BJF2 whole entry): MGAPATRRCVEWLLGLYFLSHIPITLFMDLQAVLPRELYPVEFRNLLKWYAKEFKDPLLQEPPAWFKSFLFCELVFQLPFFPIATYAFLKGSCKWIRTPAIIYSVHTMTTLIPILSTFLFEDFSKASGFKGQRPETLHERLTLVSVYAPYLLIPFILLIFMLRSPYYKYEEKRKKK

[2] = Distribution coefficient, logD of compound at pH 7.4 by HPLC analysis; type: physicochemical; details: octanol/water
P2Y purinoceptor 14 [3] = molecular target: T1, P2Y purinoceptor 14 (Mus musculus, UniProt Q9ESG6); assay: Inhibition of fluorescent antagonist binding to mouse P2Y14R expressed in HEK293 cells preincubated for 30 mins followed by addition of 6-amino-9-(2-carboxy-4-((6-(4-(4-(4-(4-(3-carboxy-6-(4-(trifluoromethyl)phenyl)naphthalen-1-yl)phenyl)piperidin-1-yl)butyl)-1H-1,2,3-triazol-1-yl)hexyl)carbamoyl)phenyl)-3-iminio-5-sulfo-3H-xanthene-4-sulfonate incubated for 30 mins by BD FACSCalibur flow …; type: cell-based
T1 sequence (Q9ESG6 whole entry): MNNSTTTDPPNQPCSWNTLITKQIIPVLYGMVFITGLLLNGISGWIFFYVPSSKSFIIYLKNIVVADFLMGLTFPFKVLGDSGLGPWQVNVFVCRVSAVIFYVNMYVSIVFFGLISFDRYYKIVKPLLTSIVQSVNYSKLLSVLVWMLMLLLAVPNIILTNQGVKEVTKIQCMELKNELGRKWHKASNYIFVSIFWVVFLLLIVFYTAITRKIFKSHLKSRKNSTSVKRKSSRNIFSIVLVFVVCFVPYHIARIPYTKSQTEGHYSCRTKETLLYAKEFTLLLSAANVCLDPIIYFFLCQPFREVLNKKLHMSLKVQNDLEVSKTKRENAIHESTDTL

[4] = Aqueous solubility of the compound at pH 4; details: buffer
[5] = Aqueous solubility of the compound at pH 7.4
P2Y purinoceptor 14 [6] = molecular target: T2, P2Y purinoceptor 14 (Homo sapiens, UniProt Q15391); assay: cell-based
T2 sequence (Q15391 whole entry): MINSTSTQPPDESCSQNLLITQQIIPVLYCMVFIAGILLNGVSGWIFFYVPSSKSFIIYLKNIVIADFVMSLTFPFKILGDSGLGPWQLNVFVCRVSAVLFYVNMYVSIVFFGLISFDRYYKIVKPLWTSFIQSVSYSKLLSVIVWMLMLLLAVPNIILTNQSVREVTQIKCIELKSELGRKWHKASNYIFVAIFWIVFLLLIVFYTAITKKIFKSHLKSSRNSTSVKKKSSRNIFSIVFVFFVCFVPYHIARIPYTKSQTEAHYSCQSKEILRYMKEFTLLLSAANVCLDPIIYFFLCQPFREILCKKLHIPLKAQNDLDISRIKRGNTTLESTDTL
Description: Inhibition of fluorescent antagonist binding to human P2Y14R expressed in CHO cells preincubated for 30 mins followed by 6-amino-9-(2-carboxy-4-((6-(4-(4-(4-(4-(3-carboxy 6-(4-(trifluoromethyl)phenyl)naphthalen-1-yl)phenyl)piperidin-1-yl)butyl)-1H-1,2,3-triazol-1-yl)hexyl)carbamoyl)phenyl)-3-iminio-5-sulfo-3H-xanthene-4-sulfonate addition and measured after 30 mins by BD FACSCalibur flow cytometry analysis

[7] = molecular target: Sigma non-opioid intracellular receptor 1 (Homo sapiens, UniProt Q99720); assay: Inhibition of sigma 1 receptor (unknown origin) assessed as binding constant
Sequence of Sigma non-opioid intracellular receptor 1 (Q99720 whole entry): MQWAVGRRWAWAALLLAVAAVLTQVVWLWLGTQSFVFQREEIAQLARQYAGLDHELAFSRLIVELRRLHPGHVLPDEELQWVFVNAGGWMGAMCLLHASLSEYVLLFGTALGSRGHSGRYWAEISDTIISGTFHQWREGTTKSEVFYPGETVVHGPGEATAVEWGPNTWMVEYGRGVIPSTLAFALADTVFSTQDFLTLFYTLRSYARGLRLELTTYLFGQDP

[8] = Stability of the compound in simulated intestinal fluid assessed as parent compound remaining at 120 mins; type: ADME; details: simulated gi fluid, 2 h
[9] = Stability of the compound in simulated gastric fluid assessed as parent compound remaining at 120 mins by NMR analysis; type: ADME; details: simulated gi fluid, 2 h
[10] = Stability in rat plasma assessed as compound remaining after 120 mins; type: ADME, cell-free; details: 2 h
[11] = Stability in mouse plasma assessed as compound remaining after 120 mins; type: ADME, cell-free; details: 2 h
[12] = Stability in mouse liver microsomes assessed as half life; type: ADME, Microsome
[13] = Stability in rat liver microsomes assessed as half life; type: ADME, Microsome
[14] = Stability in human liver microsomes assessed as half life; type: ADME, Microsome
HepG2 = assay: Cytotoxicity against human HepG2 cells; type: toxicity, cell-based
[15] = Half life in Wistar rat at 0.5 mg/kg, iv; type: ADME, organism-based; details: in vivo
[16] = Half life in Wistar rat at 1 mg/kg, ip; type: ADME, organism-based; details: in vivo
[17] = Plasma protein binding in mouse assessed as bound fraction; type: ADME, cell-free
[18] = Plasma protein binding in rat assessed as bound fraction; type: ADME, cell-free
[19] = Plasma protein binding in human assessed as bound fraction; type: ADME, cell-free
Mus musculus [20] = assay: Antiinflammatory activity in C57BL/6J mouse model of ovalbumin/Aspergillus-induced allergic asthma assessed as reduction in recruitment of immune cells into lungs at 10 mg/kg, ip administered 30 mins prior to allergen challenge and measured after 16 days; type: functional, organism-based; details: time 16.0 day
D(1B) dopamine receptor = D(1B) dopamine receptor (Homo sapiens, UniProt P21918); assay: Inhibition of dopamine D5 receptor (unknown origin) assessed as binding constant
Sequence of D(1B) dopamine receptor (P21918 whole entry): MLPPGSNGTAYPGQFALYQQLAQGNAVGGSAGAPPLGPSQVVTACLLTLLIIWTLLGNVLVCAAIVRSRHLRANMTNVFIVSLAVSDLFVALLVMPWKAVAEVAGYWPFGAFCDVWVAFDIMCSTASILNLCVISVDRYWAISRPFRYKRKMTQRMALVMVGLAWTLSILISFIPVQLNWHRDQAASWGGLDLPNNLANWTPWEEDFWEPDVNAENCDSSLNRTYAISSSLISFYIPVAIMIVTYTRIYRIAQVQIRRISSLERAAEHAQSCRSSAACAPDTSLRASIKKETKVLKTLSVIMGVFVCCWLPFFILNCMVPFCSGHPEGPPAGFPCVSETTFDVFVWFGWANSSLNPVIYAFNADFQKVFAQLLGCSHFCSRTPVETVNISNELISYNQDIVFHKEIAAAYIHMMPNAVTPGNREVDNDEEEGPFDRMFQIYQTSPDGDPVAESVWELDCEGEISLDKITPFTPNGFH

liver carboxylesterase = molecular target: T3, liver carboxylesterase (Sus scrofa, UniProt Q29550); assay: Stability of the compound in aqueous medium at pH 7.4 assessed as half life in presence of porcine liver esterase; type: physicochemical; details: pig
T3 sequence (Q29550 whole entry): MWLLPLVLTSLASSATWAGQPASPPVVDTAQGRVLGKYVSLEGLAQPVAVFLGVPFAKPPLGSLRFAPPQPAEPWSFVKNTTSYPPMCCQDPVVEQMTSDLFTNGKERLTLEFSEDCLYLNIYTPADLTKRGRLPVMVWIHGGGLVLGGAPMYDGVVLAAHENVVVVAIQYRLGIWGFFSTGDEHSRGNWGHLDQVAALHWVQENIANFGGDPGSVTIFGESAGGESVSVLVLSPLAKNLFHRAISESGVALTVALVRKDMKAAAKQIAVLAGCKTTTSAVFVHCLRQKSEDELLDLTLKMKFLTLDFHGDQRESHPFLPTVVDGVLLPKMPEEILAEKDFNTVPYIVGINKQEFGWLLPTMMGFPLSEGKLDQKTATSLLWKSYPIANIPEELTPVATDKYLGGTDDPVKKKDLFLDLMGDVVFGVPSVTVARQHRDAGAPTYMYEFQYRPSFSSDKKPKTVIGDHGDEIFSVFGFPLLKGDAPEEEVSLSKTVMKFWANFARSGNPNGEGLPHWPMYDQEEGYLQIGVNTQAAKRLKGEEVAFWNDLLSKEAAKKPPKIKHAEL

D(3) dopamine receptor = D(3) dopamine receptor (Homo sapiens, UniProt P35462); assay: Inhibition of dopamine D3 receptor (unknown origin) assessed as binding constant
Sequence of D(3) dopamine receptor (P35462 whole entry): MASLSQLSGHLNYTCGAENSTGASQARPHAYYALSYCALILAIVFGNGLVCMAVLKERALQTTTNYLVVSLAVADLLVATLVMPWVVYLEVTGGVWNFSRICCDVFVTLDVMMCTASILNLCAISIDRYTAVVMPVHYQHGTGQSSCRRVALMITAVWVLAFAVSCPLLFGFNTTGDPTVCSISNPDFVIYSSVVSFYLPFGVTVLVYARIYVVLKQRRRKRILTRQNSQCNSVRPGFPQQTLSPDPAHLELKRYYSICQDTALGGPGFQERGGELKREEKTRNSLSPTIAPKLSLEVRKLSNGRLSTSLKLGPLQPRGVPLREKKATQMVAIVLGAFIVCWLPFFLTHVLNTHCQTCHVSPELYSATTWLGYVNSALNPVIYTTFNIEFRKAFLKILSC

Translocator protein = Translocator protein (Homo sapiens, UniProt P30536); assay: Inhibition of TSPO receptor (unknown origin) assessed as binding constant
Sequence of Translocator protein (P30536 whole entry): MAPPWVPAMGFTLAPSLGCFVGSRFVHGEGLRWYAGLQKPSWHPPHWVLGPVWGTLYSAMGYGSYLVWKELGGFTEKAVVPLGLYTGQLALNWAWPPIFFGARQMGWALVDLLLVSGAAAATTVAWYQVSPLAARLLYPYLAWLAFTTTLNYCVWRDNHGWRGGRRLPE

[21] = molecular target: Beta-3 adrenergic receptor (Homo sapiens, UniProt P13945); assay: Inhibition of adrenergic beta 3 receptor (unknown origin) assessed as binding constant
Sequence of Beta-3 adrenergic receptor (P13945 whole entry): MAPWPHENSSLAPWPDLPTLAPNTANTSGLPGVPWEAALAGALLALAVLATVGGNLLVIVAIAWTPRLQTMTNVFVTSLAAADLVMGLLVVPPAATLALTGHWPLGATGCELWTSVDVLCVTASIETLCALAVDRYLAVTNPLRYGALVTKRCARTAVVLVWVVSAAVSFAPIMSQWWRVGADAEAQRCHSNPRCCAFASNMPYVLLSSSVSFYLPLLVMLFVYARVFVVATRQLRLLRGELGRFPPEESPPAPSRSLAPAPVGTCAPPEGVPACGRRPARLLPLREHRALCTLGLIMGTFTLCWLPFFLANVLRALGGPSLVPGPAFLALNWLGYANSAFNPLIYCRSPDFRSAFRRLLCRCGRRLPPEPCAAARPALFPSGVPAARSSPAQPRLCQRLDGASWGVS

Mus musculus [22] = assay: Antiinflammatory activity in C57BL/6J mouse model of ovalbumin/Aspergillus-induced allergic asthma assessed as reduction in eosinophil counts in BALF at 10 mg/kg, ip administered 30 mins prior to allergen challenge and measured after 16 days; type: functional, organism-based; details: time 16.0 day
Mus musculus [23] = assay: Antiinflammatory activity in C57BL/6J mouse model of ovalbumin/Aspergillus-induced allergic asthma assessed as reduction in macrophage counts in BALF at 10 mg/kg, ip administered 30 mins prior to allergen challenge and measured after 16 days; type: functional, organism-based; details: time 16.0 day
Mus musculus [24] = assay: Antiinflammatory activity in C57BL/6J mouse model of ovalbumin/Aspergillus-induced allergic asthma assessed as reduction in neutrophil counts in BALF at 10 mg/kg, ip administered 30 mins prior to allergen challenge and measured after 16 days; type: functional, organism-based; details: time 16.0 day
Mus musculus [25] = assay: Reversal of CCI-induced mechano-allodynia in Hsd:ICR (CD-1) mouse model of neuropathic pain at 10 micromol/kg, ip measured after 3 hrs; type: functional, organism-based; details: dose 10.0 µmol/kg
Mus musculus [26] = assay: Reversal of CCI-induced mechano-allodynia in Hsd:ICR (CD-1) mouse model of neuropathic pain at 10 micromol/kg, ip measured after 5 hrs; type: functional, organism-based; details: dose 10.0 µmol/kg
Mus musculus [27] = assay: Antiinflammatory activity in C57BL/6J mouse model of ovalbumin/Aspergillus-induced allergic asthma assessed as reduction in allergic inflammation at 10 mg/kg, ip administered 30 mins prior to allergen challenge and measured after 16 days; type: functional, organism-based; details: time 16.0 day

O=C(O)c1cc(-c2ccc([C@@H]3C[C@H]4CN[C@@H]3C4)cc2)c2ccc(-c3ccc(C(F)(F)F)cc3)cc2c1
Ki [1]: 1000 nM
logD ([2]; read-out: logD): 2.1
IC50 (P2Y purinoceptor 14 [3]): 90.9 nM

O=C(O)c1cc(-c2ccc(C3CC4CCC(C3)N4)cc2)c2ccc(-c3ccc(C(F)(F)F)cc3)cc2c1 (stereo unspecified)
solubility [4]: 0.38 µg/mL (≈ 0.758 µM)
solubility ([5]; buffer): 0.13 µg/mL (≈ 0.259 µM)
logD ([2]; read-out: logD): 2.3
IC50 (P2Y purinoceptor 14 [6]): 38.3 nM

O=C(O)c1cc(-c2ccc(C3(O)[C@H]4CC[C@H]3CNC4)cc2)c2ccc(-c3ccc(C(F)(F)F)cc3)cc2c1 (stereo partly specified)
Ki [1]: 1700 nM
solubility [4]: 2.32 µg/mL (≈ 4.48 µM)
solubility ([5]; buffer): 0.54 µg/mL (≈ 1.04 µM)
logD ([2]; read-out: logD): 1.2
IC50 (P2Y purinoceptor 14 [3]): 15.5 nM
Ki [7]: 1700 nM
IC50 (P2Y purinoceptor 14 [6]): 21.3 nM

O=C(O)c1cc(-c2ccc([C@@H]3C[C@@H]4C[C@H]3NC4=O)cc2)c2ccc(-c3ccc(C(F)(F)F)cc3)cc2c1
Ki [1]: 2100 nM
Stability [8]: 100%
Stability [9]: 59.3%
Stability [10]: 74.7%
Stability [11]: 74.1%
t1/2 [12]: > 16.67 h
t1/2 [13]: 1.49 h
t1/2 [14]: 12.5 h
IC50 (HepG2): 9340 nM
half-life [15]: 2.11 h
half-life [16]: 4.59 h
PPB [17]: 99.74%
PPB [18]: 96.18%
PPB [19]: 98.89%
Activity (Mus musculus [20]): Active

CC(=O)N1C[C@@H]2C[C@H]1C[C@H]2c1ccc(-c2cc(C(=O)O)cc3cc(-c4ccc(C(F)(F)F)cc4)ccc23)cc1
Ki (D(1B) dopamine receptor): > 1000 nM
Ki [1]: 1700 nM
logD [2]: 0.55
Ki [7]: 4200 nM
IC50 (P2Y purinoceptor 14 [6]): 64.1 nM

CC(=O)N1C[C@@H]2C[C@H]1C[C@H]2c1ccc(-c2cc(C(=O)OCC(=O)N(C)C)cc3cc(-c4ccc(C(F)(F)F)cc4)ccc23)cc1
half-life (liver carboxylesterase): > 72 h

N[C@H]1C[C@@H](CO)[C@H](c2ccc(-c3cc(C(=O)O)cc4cc(-c5ccc(C(F)(F)F)cc5)ccc34)cc2)C1
Ki [1]: 1100 nM
Ki (D(3) dopamine receptor): 330 nM
logD ([2]; read-out: logD): 0.96
Ki [7]: 1300 nM
Ki (Translocator protein): 1800 nM
Ki [21]: > 1000 nM

COC1(c2ccc(-c3cc(C(=O)O)cc4cc(-c5ccc(C(F)(F)F)cc5)ccc34)cc2)[C@H]2CC[C@H]1CNC2 (stereo partly specified)
solubility [4]: 1.81 µg/mL (≈ 3.4 µM)
solubility ([5]; aqueous medium): 0.88 µg/mL (≈ 1.66 µM)
logD ([2]; read-out: logD): 1.4
IC50 (P2Y purinoceptor 14 [6]): 44.6 nM

O=C(O)c1cc(-c2ccc([C@H]3C[C@H]4C[C@@H]3CN4)cc2)c2ccc(-c3ccc(C(F)(F)F)cc3)cc2c1
Activity (Mus musculus [22]): Active
Activity (Mus musculus [23]): inactive
Activity (Mus musculus [24]): Active
Activity (Mus musculus [25]): Active
Activity (Mus musculus [26]): inactive
Activity (Mus musculus [27]): Active
